Data set [1] is described as follows: Biodistribution of radiopharmaceuticals in RAP-deficient mice and control strain C57BL/6J, organs, urine and faeces counted for radioactivity. It is filed as in vivo. Particulars: mouse, total radioactivity, single intravenous injection 1-2 μCi/animal, 24 hours post injection, n = 3; for tissue uptake at 24 h: kidneys; for dose excreted at 24 h: urine, read-out: Urine (% ID). The protocol:
In order to investigate, whether megalin and cubilin play a role in the renal uptake of radiopharmaceuticals into cells of the proximal tubule, in-vivo experiments with RAP-deficient mice (Jax®Mice, strain B6.129S7-Lrpap1^tmlHer) were carried out.
RAP is mainly located in the endoplasmatic reticulum where it is responsible for the proper folding and escort of megalin to the plasma membrane (Willnow, 1995). RAP also binds to other members of the LDL-receptor family, such as the receptor LRP (LDL-receptor related protein) which is not expressed in the kidneys but mostly in the liver and the brain. In RAP-deficient mice the megalin expression in the kidneys is reduced by about 80% (Bim, 2000) and also the cubilin expression is reduced by some extend. These mice are therefore a representative model to study the megalin dependence of the uptake of radiopharmaceuticals. There exist also megalin knock-out mice which have the disadvantage that only 2% of the bred animals survive to adulthood due to several malformations especially of the forebrain (Leheste, 1999).
RAP-deficient mice (stock #002987) and mice of the control strain C57BL/6J (Jax®Mice, stock #000664) were treated with a single intravenous injection (1-2 μCi/animal) of the following radiopharmaceuticals:
After 24 hours post injection the animals were killed and the organs as well as the collected urine and faeces counted for radioactivity. […]

In data set [2] the target is megalin (Homo sapiens, UniProt P98164). The conditions noted are these: cited from earlier work.
The mark [3] stands for this setting: B6.129S7-Lrpap1^tmlHer (RAP-deficient), RAP−/− (RAP-deficient) mice.

Read-outs that look alike come from different tables or passages of the source. Square brackets hold non-standard residues; d marks the D form. Peptide text beside a SMILES is read from it. * marks the point of attachment. X1 = NCCCC[C@H](NC(=O)[C@H](CS)NC(=O)[C@H](CCCCN)NC(=O)[C@@H](N)CNC(=O)C*)C(N)=O; NMeF = CN[C@@H](Cc1ccccc1)C(=O)O; hCys = N[C@@H](CCS)C(=O)O

As a reminder, the tissue uptake is the percentage of the injected dose found per gram of tissue.

Chain of megalin (P98164 26-4655, species assumed): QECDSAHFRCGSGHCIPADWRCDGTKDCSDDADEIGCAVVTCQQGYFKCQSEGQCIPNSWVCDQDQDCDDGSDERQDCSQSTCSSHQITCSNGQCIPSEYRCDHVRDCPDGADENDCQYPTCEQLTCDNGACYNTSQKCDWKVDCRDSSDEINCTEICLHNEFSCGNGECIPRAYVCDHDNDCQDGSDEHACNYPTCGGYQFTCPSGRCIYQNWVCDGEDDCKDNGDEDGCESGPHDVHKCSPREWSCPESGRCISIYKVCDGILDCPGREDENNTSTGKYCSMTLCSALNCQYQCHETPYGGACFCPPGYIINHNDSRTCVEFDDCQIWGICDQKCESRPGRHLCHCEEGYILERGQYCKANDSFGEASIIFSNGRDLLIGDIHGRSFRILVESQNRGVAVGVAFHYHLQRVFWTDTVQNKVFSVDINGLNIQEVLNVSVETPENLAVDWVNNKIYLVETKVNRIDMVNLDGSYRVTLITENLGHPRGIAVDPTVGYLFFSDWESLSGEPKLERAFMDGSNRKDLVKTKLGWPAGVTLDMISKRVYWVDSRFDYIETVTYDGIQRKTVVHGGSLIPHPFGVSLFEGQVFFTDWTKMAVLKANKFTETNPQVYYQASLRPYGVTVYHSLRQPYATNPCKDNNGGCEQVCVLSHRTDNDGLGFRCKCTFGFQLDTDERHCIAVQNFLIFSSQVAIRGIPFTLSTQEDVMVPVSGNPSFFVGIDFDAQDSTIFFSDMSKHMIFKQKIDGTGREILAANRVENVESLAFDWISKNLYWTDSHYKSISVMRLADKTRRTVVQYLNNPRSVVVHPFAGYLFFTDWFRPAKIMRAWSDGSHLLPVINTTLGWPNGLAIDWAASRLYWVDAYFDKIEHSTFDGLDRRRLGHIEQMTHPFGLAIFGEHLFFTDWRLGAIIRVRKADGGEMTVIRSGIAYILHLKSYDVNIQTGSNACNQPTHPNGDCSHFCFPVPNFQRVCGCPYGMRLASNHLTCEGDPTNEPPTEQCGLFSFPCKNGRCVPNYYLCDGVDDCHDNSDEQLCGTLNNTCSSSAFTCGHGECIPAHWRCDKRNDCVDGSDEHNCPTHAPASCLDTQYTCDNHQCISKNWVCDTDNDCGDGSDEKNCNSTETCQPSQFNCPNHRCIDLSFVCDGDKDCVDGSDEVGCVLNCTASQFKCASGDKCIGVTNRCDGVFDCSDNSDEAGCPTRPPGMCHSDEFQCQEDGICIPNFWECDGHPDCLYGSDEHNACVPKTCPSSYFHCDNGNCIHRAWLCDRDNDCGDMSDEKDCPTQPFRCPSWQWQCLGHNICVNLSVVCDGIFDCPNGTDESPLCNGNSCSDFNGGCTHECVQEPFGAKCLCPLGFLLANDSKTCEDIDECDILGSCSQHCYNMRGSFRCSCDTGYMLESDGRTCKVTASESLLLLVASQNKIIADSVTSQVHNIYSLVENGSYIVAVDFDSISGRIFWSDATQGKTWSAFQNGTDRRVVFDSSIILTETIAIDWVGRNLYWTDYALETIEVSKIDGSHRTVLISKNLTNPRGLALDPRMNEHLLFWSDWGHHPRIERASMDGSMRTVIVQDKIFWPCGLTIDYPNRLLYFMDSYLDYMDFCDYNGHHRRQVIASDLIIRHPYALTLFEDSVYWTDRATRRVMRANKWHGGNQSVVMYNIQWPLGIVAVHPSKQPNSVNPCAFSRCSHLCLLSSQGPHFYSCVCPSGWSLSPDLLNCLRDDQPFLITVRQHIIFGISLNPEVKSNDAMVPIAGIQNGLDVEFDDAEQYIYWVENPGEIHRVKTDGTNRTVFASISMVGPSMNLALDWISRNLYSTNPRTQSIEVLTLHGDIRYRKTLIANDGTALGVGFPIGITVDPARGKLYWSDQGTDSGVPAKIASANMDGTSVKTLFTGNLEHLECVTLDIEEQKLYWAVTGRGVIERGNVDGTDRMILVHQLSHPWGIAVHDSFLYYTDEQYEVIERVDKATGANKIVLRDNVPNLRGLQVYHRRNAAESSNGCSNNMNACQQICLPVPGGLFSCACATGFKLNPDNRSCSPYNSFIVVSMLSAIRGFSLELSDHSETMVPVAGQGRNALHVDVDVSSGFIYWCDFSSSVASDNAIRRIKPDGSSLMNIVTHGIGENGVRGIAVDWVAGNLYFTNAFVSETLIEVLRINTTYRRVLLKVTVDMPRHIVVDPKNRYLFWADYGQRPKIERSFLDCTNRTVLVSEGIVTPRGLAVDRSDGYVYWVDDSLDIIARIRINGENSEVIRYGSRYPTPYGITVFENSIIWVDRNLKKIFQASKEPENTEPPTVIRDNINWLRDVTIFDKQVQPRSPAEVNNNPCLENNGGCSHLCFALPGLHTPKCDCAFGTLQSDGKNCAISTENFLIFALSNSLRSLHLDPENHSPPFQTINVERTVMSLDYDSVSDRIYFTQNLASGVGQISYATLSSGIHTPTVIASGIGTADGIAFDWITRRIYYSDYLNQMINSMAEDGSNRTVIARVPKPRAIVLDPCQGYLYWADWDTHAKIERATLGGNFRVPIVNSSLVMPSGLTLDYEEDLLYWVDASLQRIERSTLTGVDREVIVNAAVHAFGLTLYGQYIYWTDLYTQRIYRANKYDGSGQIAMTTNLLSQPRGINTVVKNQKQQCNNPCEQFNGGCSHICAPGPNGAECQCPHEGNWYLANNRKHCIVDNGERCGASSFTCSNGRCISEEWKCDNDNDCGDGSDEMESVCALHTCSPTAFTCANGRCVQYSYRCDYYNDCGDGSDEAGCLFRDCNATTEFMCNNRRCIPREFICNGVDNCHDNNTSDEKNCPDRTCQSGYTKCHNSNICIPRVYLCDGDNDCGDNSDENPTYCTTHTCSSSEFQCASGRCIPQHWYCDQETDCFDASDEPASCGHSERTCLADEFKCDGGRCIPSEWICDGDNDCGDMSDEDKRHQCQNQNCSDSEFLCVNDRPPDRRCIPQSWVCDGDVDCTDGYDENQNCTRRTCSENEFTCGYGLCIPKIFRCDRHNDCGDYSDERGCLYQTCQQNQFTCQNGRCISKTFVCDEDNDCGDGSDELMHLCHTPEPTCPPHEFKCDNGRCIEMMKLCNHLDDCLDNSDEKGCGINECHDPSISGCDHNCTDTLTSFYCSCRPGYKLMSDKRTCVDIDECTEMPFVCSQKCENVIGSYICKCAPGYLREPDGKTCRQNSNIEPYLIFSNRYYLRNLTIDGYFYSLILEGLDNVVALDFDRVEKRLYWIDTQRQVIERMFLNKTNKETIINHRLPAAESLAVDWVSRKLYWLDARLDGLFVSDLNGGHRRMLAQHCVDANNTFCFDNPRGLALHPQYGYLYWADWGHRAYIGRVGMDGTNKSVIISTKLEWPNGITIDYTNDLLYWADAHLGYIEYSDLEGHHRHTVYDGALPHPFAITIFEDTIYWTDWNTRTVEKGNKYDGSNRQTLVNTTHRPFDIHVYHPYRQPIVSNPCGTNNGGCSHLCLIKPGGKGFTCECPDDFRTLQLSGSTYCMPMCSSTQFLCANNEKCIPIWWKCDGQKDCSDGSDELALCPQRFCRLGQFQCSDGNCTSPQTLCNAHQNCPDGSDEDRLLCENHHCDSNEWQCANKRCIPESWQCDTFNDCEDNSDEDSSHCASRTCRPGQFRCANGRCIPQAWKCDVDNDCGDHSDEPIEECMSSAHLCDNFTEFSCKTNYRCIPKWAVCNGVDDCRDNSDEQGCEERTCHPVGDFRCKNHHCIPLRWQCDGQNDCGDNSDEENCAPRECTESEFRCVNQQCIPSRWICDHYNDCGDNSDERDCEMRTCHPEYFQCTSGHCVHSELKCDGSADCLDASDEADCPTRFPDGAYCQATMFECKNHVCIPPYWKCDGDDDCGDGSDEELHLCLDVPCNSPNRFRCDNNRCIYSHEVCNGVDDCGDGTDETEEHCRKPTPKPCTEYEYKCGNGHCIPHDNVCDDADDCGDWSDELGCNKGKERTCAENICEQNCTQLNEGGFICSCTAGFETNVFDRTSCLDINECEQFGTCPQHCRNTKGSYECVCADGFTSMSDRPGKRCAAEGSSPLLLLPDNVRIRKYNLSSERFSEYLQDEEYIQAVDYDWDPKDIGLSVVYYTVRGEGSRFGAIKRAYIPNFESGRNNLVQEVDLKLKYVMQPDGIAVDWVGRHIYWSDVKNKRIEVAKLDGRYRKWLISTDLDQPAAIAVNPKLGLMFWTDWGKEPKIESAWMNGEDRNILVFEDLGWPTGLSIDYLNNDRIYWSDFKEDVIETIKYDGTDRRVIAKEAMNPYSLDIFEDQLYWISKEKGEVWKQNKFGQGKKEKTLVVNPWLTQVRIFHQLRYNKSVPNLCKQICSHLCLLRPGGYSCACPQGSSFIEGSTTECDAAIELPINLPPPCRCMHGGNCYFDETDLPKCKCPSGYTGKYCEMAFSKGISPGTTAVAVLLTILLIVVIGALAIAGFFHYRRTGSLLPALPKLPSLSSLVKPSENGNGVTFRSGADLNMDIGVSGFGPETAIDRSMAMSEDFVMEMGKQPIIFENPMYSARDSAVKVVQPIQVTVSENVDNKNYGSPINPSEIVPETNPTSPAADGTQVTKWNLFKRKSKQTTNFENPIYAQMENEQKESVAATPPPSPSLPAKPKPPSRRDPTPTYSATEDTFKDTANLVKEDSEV

Regarding `CC(C)[C@@H]1NC(=O)[C@H](CCCCN)NC(=O)[C@@H](Cc2c[nH]c3ccccc23)NC(=O)[C@H](Cc2ccc(O)cc2)NC(=O)[C@H](Cc2ccccc2)N(C)C(=O)[C@H](CCSCC(=O)NC[C@H](N)C(=O)N[C@@H](CCCCN)C(=O)N[C@@H](CS)C(=O)N[C@@H](CCCCN)C(N)=O)NC1=O` [Tc-99m-NeoTect ®, metal not drawn] (cyclo([hCys](X1)[NMeF]Y[dW]KV)), in data set [1] (setting [3]), the tissue uptake at 24 h worked out at 99.3 %ID/g and the dose excreted at 24 h is 40.4%. In addition, in data set [1] (Control mice (C57BL/6J)), the tissue uptake at 24 h stood at 261 %ID/g and the dose excreted at 24 h came to 23.6%.
Turning to “RAP: 39 kDa chaperone-like protein that binds tightly to megalin”, the “Affinity of binding to megalin” value in data set [2] is “high affinity in the nanomolar range”.

These data come from patent US20040204357A1, “Modulator of the megalin-mediated uptake of radiotherapeutics and/or radiodiagnostics into kidney cells and their use in therapy and diagnostics” (priority 2003, published 2004).
